Experimental data as given in patent US10280167B2, “Purine derivatives for the treatment of viral infections” (JANSSEN SCIENCES IRELAND UC, priority 2011, dated 2019).
pEC50: −log10 of the molar value. Like-named read-outs stand apart in the source and are kept apart here.

Assays:
Assay type in all cases: cell-based
[1] = test system: Huh-7 luc/neo HCV replicon cells with conditioned media from PBMC; test: Interferon production in human PBMC (PBMC-HUH7_EC50), HCV replicon readout with conditioned media; settings: Homo sapiens, Huh-7; concentration applied to PBMCs giving 50% reduction of replicon luciferase activity
Experimental: Measurement of Interferon Production in Human PBMC (PBMC-HUH7_EC50)
Activation of human TLR7 results in robust production of interferon by plasmacytoid dendritic cells present in human blood. The potential of compounds to induce interferon was evaluated by looking at the antiviral activity in the HCV replicon system upon incubation with conditioned media from peripheral blood mononuclear cells (PBMC). The HCV replicon assay is based on a bicistronic expression construct, as described by Lohmann et al. (Science (1999) 285: 110-113; Journal of Virology (2003) 77: 3007-15 3019) with modifications described by Krieger et al. (Journal of Virology (2001) 75: 4614-4624). The assay utilized the stably transfected cell line Huh-7 luc/neo harboring an RNA encoding a bicistronic expression construct comprising the wild type NS3-NS5B regions of HCV type 1b translated from an Internal Ribosome Entry Site (IRES) from encephalomyocarditis virus (EMCV), preceded by a reporter gene (Firefly-luciferase) and a selectable marker gene (neoR, neomycine phosphotransferase). The construct is flanked by 5′ and 3′ NTRs (non-translated regions) from HCV type 1b. Continued culture of the replicon cells in the presence of G418 (neoR) is dependent on the replication of the HCV RNA. The stably transfected replicon cells that replicate HCV RNA autonomously and to high levels, encoding inter alia luciferase, were used for profiling of the conditioned cell culture media. Briefly, PBMCs were prepared from buffy coats of at least two donors using a standard Ficoll centrifugation protocol. Isolated PBMCs were resuspended in RPMI medium supplemented with 10% human AB serum and 2×10^5 cells/well were dispensed into 384-well plates containing compounds (70 μL total volume). After overnight incubation, […] was transferred to 384-well plates containing 2.2×10^3 replicon cells/well in 30 μL (plated the day before). Following 24 hours of incubation, replication was measured by assaying luciferase activity using 40 μL/well Steady Lite Plus substrate (Perkin Elmer) and measured with ViewLux ultraHTS microplate imager (Perkin Elmer). The inhibitory activity of each compound on the Huh7-luc/neo cells were reported as EC50 values, defined as the compound concentration applied to the PBMCs resulting in a 50% reduction of luciferase activity which in turn indicates the degree of replication of the replicon RNA on transfer of a defined amount of PBMC culture medium. Recombinant interferon α-2a (Roferon-A) was used as a standard control compound.

[2] = test system: HEK-ISRE-luc cells with conditioned media from PBMC; test: Interferon production in human PBMC (PBMC HEK-ISRE-luc LEC); settings: Homo sapiens, PBMC, read-out: PBMC HEK-ISRE-luc (LEC)
Experimental: Measurement of Interferon Production in Human PBMC (PBMC HEK-ISRE-Luc LEC)
Activation of human TLR7 results in robust production of interferon by plasmacytoid dendritic cells present in human blood. The potential of compounds to induce interferon was evaluated by determination of interferon in the conditioned media from peripheral blood mononuclear cells (PBMC). The presence of interferon in the samples was determined, using an interferon reporter cell line stably expressing an interferon-stimulated responsive elements (ISRE)-luc reporter construct. The ISRE element with sequence GAAACTGAAACT (SEQ ID NO: 1) is highly responsive to the STAT1-STAT2-IRF9 transcription factor, which becomes activated upon binding of IFN-I to the IFN receptor. Briefly, PBMCs were prepared from buffy coats of at least two donors using a standard Ficoll centrifugation protocol. Isolated PBMCs were resuspended in RPMI medium supplemented with 10% human AB serum and 2×10^5 cells/well were dispensed into 384-well plates containing compounds (70 μL total volume). After overnight incubation of the PBMCs with the compounds, 10 μL of supernatant was transferred to 384-well plates containing 5×10^3 HEK-ISRE-luc cells/well in 30 μL (plated the day before). Following 24 hours of incubation, activation of the ISRE elements was measured by assaying luciferase activity using 40 μL/well Steady Lite Plus substrate (Perkin Elmer) and measured with ViewLux ultraHTS microplate imager (Perkin Elmer). The stimulating activity of each compound on the HEK-ISRE-luc cells was reported as LEC. The LEC in turn indicates the degree of ISRE activation on transfer of a defined amount of PBMC culture medium.
Recombinant interferon alfa-2a (Roferon-A) was used as a standard control compound.

[3] = target: human TLR7 (Homo sapiens (Human), UniProt Q9NYK1); test: Reporter assay for TLR7 activity, HEK293 transiently transfected with wild type TLR7 and NFκB-luc; settings: lowest effective concentration; 48 h transfection
[4] = test system: human TLR7 dIRR2 mutant; test: Reporter assay for TLR7 activity, HEK293 transfected with mutant TLR7 (dIRR2 deletion) and NFκB-luc; settings: lowest effective concentration; 48 h transfection

Sequence of human TLR7 (Q9NYK1 27-1049): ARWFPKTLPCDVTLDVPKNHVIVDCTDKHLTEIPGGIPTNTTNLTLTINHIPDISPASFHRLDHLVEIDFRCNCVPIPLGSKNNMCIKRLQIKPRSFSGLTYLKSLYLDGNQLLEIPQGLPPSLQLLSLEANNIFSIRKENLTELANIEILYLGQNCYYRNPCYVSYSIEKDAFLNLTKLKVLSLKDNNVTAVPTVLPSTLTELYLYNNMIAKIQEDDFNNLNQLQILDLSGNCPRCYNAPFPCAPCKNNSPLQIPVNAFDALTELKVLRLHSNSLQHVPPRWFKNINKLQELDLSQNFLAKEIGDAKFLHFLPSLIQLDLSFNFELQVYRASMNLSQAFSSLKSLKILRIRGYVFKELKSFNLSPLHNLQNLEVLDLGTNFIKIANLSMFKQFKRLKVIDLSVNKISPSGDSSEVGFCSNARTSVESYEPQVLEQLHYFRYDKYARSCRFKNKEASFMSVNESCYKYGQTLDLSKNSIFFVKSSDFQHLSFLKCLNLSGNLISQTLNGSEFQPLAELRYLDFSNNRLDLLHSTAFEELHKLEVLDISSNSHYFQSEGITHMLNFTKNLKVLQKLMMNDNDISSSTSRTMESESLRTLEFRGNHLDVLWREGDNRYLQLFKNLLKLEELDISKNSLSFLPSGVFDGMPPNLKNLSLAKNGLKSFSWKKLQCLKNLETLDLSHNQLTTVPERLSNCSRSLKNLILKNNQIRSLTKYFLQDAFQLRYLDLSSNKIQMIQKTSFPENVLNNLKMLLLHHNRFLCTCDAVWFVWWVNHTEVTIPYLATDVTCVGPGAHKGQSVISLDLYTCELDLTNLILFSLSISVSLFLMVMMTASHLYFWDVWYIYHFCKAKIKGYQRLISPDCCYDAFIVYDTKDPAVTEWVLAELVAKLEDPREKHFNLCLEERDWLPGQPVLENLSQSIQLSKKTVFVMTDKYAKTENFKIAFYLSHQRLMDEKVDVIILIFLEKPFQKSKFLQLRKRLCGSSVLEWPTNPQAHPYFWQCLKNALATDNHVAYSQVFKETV

Structure (SMILES) | pEC50 [1] | minimal effective concentration ([2]; lowest effective concentration) | TLR7-wt_LEC 48 h [3] | TLR7-dIRR2_LEC 48 h [4] | minimal effective concentration [2]
Cc1nc(-c2nc(N)c3[nH]c(=O)n(Cc4ccccc4)c3n2)[nH]c1C [Compound 7] | 6.19 | 0.88 µM | >25 µM | 1.46 µM | –
Cc1c[nH]c(-c2nc(N)c3[nH]c(=O)n(Cc4ccccc4)c3n2)n1 [Compound 8] | 6.77 | 0.25 µM | 5.91 µM | 0.17 µM | –
Cc1ccc(Cn2c(=O)[nH]c3c(N)nc(-c4ncc[nH]4)nc32)cn1 [Compound 9] | 7.30 | 0.03 µM | 0.88 µM | 0.07 µM | –
COCCn1ccnc1-c1nc(N)c2[nH]c(=O)n(Cc3ccccc3)c2n1 [Compound 11] | 6.48 | 0.32 µM | 5.36 µM | 0.19 µM | –
Cn1ccnc1-c1nc(N)c2[nH]c(=O)n(Cc3ccccc3)c2n1 [Compound 12] | 6.23 | 0.34 µM | 8.08 µM | 0.3 µM | –
Nc1nc(-c2ccn[nH]2)nc2c1[nH]c(=O)n2Cc1ccccc1 [Compound 23] | 6.89 | 0.12 µM | 0.23 µM | 0.007 µM | –
Nc1nc(-c2ncc[nH]2)nc2c1[nH]c(=O)n2Cc1ccc2c(c1)CNCC2 [Compound 24] | 7.34 | 0.03 µM | 1.81 µM | 0.11 µM | –
Nc1nc(-c2ncc[nH]2)nc2c1[nH]c(=O)n2Cc1cccc(CN2CCCC2)c1 [Compound 25] | 8.22 | 0.007 µM | 2.46 µM | 0.39 µM | –
Cc1ccc(Cn2c(=O)[nH]c3c(N)nc(-c4nc(C5CC5)c[nH]4)nc32)cn1 [Compound 26] | 8.30 | 0.006 µM | 2.42 µM | 0.21 µM | –
Nc1nc(-c2nccn2CCO)nc2c1[nH]c(=O)n2Cc1ccccc1 [Compound 27] | 6.10 | 0.43 µM | 6.03 µM | 0.63 µM | –
CC(C)(C)c1c[nH]c(-c2nc(N)c3[nH]c(=O)n(Cc4ccccc4)c3n2)n1 [Compound 28] | < 4.62 | > 23.8 µM | >25 µM | 8.77 µM | –
CC(C)c1c[nH]c(-c2nc(N)c3[nH]c(=O)n(Cc4ccccc4)c3n2)n1 [Compound 29] | 5.78 | 0.82 µM | – | 1.58 µM | –
CCc1c[nH]c(-c2nc(N)c3[nH]c(=O)n(Cc4ccccc4)c3n2)n1 [Compound 30] | 6.77 | 0.12 µM | 12.71 µM | 0.14 µM | –
Nc1nc(-c2nc(C(F)(F)F)c[nH]2)nc2c1[nH]c(=O)n2Cc1ccccc1 [Compound 31] | 5.89 | 2.2 µM | 23.23 µM | 0.51 µM | –
Nc1nc(-c2cnco2)nc2c1[nH]c(=O)n2Cc1ccccc1 [Compound 32] | 5.82 | 0.97 µM | 6.5 µM | 0.97 µM | –
Cc1noc(-c2nc(N)c3[nH]c(=O)n(Cc4ccccc4)c3n2)n1 [Compound 33] | 6.09 | 0.52 µM | 21.66 µM | 0.98 µM | –
COCCc1nnc(-c2nc(N)c3[nH]c(=O)n(Cc4ccccc4)c3n2)o1 [Compound 34] | 6.16 | 0.49 µM | >25 µM | 1.21 µM | –
Cc1cnn(-c2nc(N)c3[nH]c(=O)n(Cc4ccccc4)c3n2)c1 [Compound 35] | 6.77 | 0.1 µM | 0.36 µM | 0.033 µM | –

Structure (SMILES) | pEC50 [1] | minimal effective concentration ([2]; lowest effective concentration) | TLR7-wt_LEC 48 h [3] | TLR7-dIRR2_LEC 48 h [4] | minimal effective concentration [2]
COC(=O)c1cccc(Cn2c(=O)[nH]c3c(N)nc(-n4cccn4)nc32)c1 [Compound 37] | – | 0.01 µM | 0.05 µM | – | –
Nc1nc(-n2cccn2)nc2c1[nH]c(=O)n2Cc1cccc(C(=O)O)c1 [Compound 38] | – | > 25 µM | 0.38 µM | – | –
Nc1nc(-n2cccn2)nc2c1[nH]c(=O)n2Cc1cccc(CO)c1 [Compound 39] | – | 0.01 µM | 0.05 µM | – | –
CCOP(=O)(Cc1cccc(Cn2c(=O)[nH]c3c(N)nc(-n4cccn4)nc32)c1)OCC [Compound 40] | – | – | 0.03 µM | – | 0.01 µM
Cl.Nc1nc(-n2cccn2)nc2c1[nH]c(=O)n2Cc1cccc(CP(=O)(O)O)c1 [Compound 41] | – | 0.4 µM | 0.03 µM | – | –
Nc1nc(-c2ccn[nH]2)nc2c1[nH]c(=O)n2Cc1cn2ccccc2n1 [Compound 43] | – | 0.15 µM | 0.50 µM | – | –
COC(=O)c1cccc(Cn2c(=O)[nH]c3c(N)nc(-c4ccn[nH]4)nc32)c1 [Compound 44] | – | 0.04 µM | 0.10 µM | – | –
Nc1nc(-c2ccn[nH]2)nc2c1[nH]c(=O)n2Cc1cccc(C(=O)O)c1 [Compound 45] | – | 1.37 µM | 0.58 µM | – | –
Nc1nc(-c2ccn[nH]2)nc2c1[nH]c(=O)n2Cc1cccc(CO)c1 [Compound 46] | – | 0.03 µM | 0.21 µM | – | –
CCOP(=O)(CCCn1ccnc1-c1nc(N)c2[nH]c(=O)n(Cc3ccccc3)c2n1)OCC [Compound 47] | – | – | 14.12 µM | – | 1.64 µM
Nc1nc(-n2cccn2)nc2c1[nH]c(=O)n2Cc1cn2ccccc2n1 [Compound 48] | – | 0.01 µM | 0.01 µM | – | –
COc1ccnc(Cn2c(=O)[nH]c3c(N)nc(-n4cccn4)nc32)c1OC [Compound 49] | – | 0.06 µM | 0.31 µM | – | –
Cc1ccc(Cn2c(=O)[nH]c3c(N)nc(-n4cccn4)nc32)cn1 [Compound 50] | – | 0.01 µM | 0.03 µM | – | –
Nc1nc(-c2cc(C3CC3)n[nH]2)nc2c1[nH]c(=O)n2Cc1ccccc1 [Compound 51] | – | 0.17 µM | 0.16 µM | – | –
Nc1nc(-c2ccn(CCO)n2)nc2c1[nH]c(=O)n2Cc1ccccc1 [Compound 52] | – | 0.42 µM | 4.42 µM | 0.41 µM | –
Cc1cn[nH]c1-c1nc(N)c2[nH]c(=O)n(Cc3ccccc3)c2n1 [Compound 53] | 6.12 | – | 3.17 µM | 0.36 µM | –
Nc1nc(-c2ncc[nH]2)nc2c1[nH]c(=O)n2Cc1cccc(C(=O)N2CCCC2)c1 [Compound 55] | 5.90 | 1.16 µM | – | 0.06 µM | –
